Data from patent US7915293B2, “Ubiquitin ligase inhibitors” (Rigel Pharmaceuticals, Inc., priority 2003, dated 2011).

Assays:
[1] = biological target: E3 (His-APC11/APC2-"APC") (Homo sapiens, UniProt Q9NYG5+Q9UJX6); assay: Plate-based E3 ligase assay (APC FLAG), auto-ubiquitination; assay type: biochemical; set-up: key: “+” indicates that the compound exibits inhibitory activity; “−” indicates that low or no inhibitory activity was observed; details: for APC Flag 8 pt: 8 concentrations tested
Experimental: E3 (His-APC11/APC2-“APC”) auto-ubiquitination was measured as described in U.S. patent application Ser. No. 09/826,312 (Publication No. US-2002-0042083-A1), which is incorporated herein in its entirety. Details of the protocol are described below. Activity in the presence of the compound was determined relative to a parallel control in which only DMSO was added. Values of the IC50 were typically determined using 6 or 8 different concentrations of the compound, although as few as 2 concentrations may be used to approximate the IC50 value.
Nickel-coated 96-well plates (Pierce 15242) were blocked for 1 hour with 100 μl of blocking buffer at room temperature. The plates were washed 4 times with 225 μl of 1×PBS and 80 μl of the reaction buffer were added that contained 100 ng/well of Flag-ubiquitin. To this, 10 μl of the test compound diluted in DMSO were added. After the test compound was added, 10 μl of E1 (human), E2 (Ubch5c), and APC in Protein Buffer was added to obtain a final concentration of 5 ng/well of E1, 20 ng/well of E2 and 100 ng/well of APC. The plate were shaken for 10 minutes and incubated at room temperature for 1 hour. After incubation, the plates were washed 4 times with 225 μl of 1×PBS and 100 μl/well of Antibody Mix were added to each well. The plates were incubate at room temperature for another hour after which they were washed 4 times with 225 μl of 1×PBS and 100 μl/well of Lumino substrate were added to each well. The luminescence was measured by using a BMG luminescence microplate reader.
To prepare the Blocking Buffer (1 liter; 1% Casein in 1×PBS), 10 grams of Casein (Hammersten Grade Casein from Gallard-Schlesinger Inc. #440203) were placed into 1 liter of 1×PBS, stirred on a hot plate and kept between 50-60° C. for an hour. The buffer was allowed to cool to room temperature and then filtered using a Buchner Funnel (Buchner filter funnel 83 mm 30310-109) and Whatman filter paper (Whatman Grade No. 1 Filter paper 28450-070). It was stored at 4° C. until used.
The reaction buffer consisted of 62.5 mM Tris pH 7.6 (Trizma Base—Sigma T-8524), 3 mM MgCl2 (Magnesium Chloride—Sigma M-2393), 1 mM DTT (Sigma D-9779), 2.5 mM ATP (Roche Boehringer Mann Corp. 635-316), 100 ng/well of Flag-ubiquitin, 0.1% BSA (Sigma A-7906), and 0.05% Tween-20 (Sigma P-7949).
The Protein Buffer consisted of 20 mM Tris pH 7.6, 10% glycerol (Sigma G-5516) and 1 mM DTT.
The antibody mix consisted of 0.25% BSA (Sigma A-7906) in 1×PBS, 1/50,000 anti-Flag (Sigma F-3165), 1/100,000 of anti-Mouse IgG-HRP (Jackson Immunoresearch #115-035-146).
The substrate mix consisted of SuperSignal Substrate from Pierce (catalog number 37070ZZ) and was prepared by mixing 100 ml of the peroxide solution, 100 ml of the enhancer solution and 100 ml of Milli-Q® water.

A549 cells = assay: Cell proliferation assay, photographic image analysis of proliferation, apoptosis and death (PAD assay), A549; assay type: cell-based; set-up: key: “+” indicates that the compound exibits inhibitory activity; “−” indicates that low or no inhibitory activity was observed; details: 6 concentrations tested
Experimental: A549 (ATCC# CCL-185), HeLa (ATCC# CCL-2), HCT116 (ATCC# CCL-247), and H1299 (ATCC# CRL-5803) cells were maintained in T175 flasks following the ATCC recommended media and handling procedures. Flasks reaching approximately 70% confluency were trypsinized and resuspended in RPMI media (Cell-Gro catalog number 10-040-CM) modified to contain 5% FBS, 100 ug/mlPen/Strep (Cell-Gro catalog number 30-002-CL), and 0.3 mg/ml L-Glutamine (Cell-Gro catalog number 25-003-CL). A 20,000 cells/ml solution was made for plating. Cells were plated in black Packard 96 well plates by placing 100 μl per well (2,000 cells per well).
Compounds and additional media were added 24 hours after cell plating. A compound master plate was created with concentrations 500 times greater than the final concentration added to the cells. All compound testing was done in duplicate using 6.3 fold dilutions starting with 10 mM. All outside wells (and 4 internal wells) were DMSO controls. Taxol and at least one additional control were run on all plates. Three microliters of the compound master plate were added to deep well blocks containing 750 μl of RPMI media. One hundred microliters were transferred from the compound/media deep well blocks to the plated cells resulting in a 500 fold dilution of the compounds. Cells were grown at 37° C., 5% CO2 for 48 hours.
Cells to be analyzed by photography were fixed and stained. One hundred microliters of media were removed and 100 μl of 9.3% […] was added to each well. Plates were left on the benchtop for 45 minutes. A staining solution containing 1.55 μl of 1 mg/ml DAPI added to 18.75 ml PBS was warmed for 15 minutes at 37° C. The cells were aspirated prior to washing with 100 μl of PBS. Seventy microliters of PBS were aspirated and 170 μl of the DAPI solution were added to each well of fixed cells. Plates were left at room temperature for one hour then aspirated and washed twice with 100 μl of PBS. The stained cells were left at 4° C. for a minimum of 16 hours before photographic analysis with Array Scan II (Cellomics). Analysis of the photographic images to determine numbers of live cells (proliferation), apoptotic cells and dead cells, were according to the methods described in U.S. Provisional Patent Application Ser. No. 60/406,714, which incorporated herein in its entirety.

E3 (His-APC11/APC2-"APC"), sequence (Q9NYG5 whole entry): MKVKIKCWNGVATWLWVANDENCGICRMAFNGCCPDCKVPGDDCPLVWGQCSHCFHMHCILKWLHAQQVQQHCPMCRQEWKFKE
E3 (His-APC11/APC2-"APC"), sequence (Q9UJX6 whole entry): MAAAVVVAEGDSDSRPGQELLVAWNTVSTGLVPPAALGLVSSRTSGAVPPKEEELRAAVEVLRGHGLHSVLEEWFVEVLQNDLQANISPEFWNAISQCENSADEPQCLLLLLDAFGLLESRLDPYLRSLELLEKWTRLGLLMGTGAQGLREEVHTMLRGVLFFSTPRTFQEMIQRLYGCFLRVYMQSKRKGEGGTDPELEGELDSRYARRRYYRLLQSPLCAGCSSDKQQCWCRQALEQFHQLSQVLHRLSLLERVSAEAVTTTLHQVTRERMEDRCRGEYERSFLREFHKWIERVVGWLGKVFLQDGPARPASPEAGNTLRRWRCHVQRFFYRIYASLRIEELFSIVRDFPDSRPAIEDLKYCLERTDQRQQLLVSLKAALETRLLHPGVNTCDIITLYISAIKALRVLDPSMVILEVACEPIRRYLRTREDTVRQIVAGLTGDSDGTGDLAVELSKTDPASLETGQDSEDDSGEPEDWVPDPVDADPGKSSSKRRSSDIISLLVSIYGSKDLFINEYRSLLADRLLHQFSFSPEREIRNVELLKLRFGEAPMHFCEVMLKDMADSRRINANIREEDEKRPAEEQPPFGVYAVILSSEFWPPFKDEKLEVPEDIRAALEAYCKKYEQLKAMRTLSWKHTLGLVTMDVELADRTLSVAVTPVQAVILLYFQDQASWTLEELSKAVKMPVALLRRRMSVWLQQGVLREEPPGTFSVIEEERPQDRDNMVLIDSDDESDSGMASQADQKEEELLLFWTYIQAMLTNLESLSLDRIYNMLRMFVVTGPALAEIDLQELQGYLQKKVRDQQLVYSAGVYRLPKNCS

| SMILES | APC Flag 8 pt [1] | APC Flag (2 pt) ([1]; 2 concentrations tested) | PAD Assay, A549 6 pt (A549 cells) |
| --- | --- | --- | --- |
| CC1CN(S(=O)(=O)c2cc(Cl)c(Oc3ccc([N+](=O)[O-])cc3Cl)c(Cl)c2)CC(C)O1 (centres unmarked) [Example 18, 4-{[3,5-dichloro-4-(2-chloro-4-nitrophenoxy)phenyl]sulfonyl}-2,6-dimethylmorpholine] | − |  | − |
| O=[N+]([O-])c1ccc(Oc2c(Cl)cc(S(=O)(=O)N3CCCCC3)cc2Cl)c(Cl)c1 [Example 21, 1-{[3,5-dichloro-4-(2-chloro-4-nitrophenoxy)phenyl]sulfonyl}piperidine] | − |  | − |
| Cc1ccc(S(=O)(=O)Nc2ccc(Oc3c([N+](=O)[O-])cc(C(F)(F)F)cc3[N+](=O)[O-])c(Cl)c2)cc1 [Example 247, N-{3-chloro-4-[2,6-dinitro-4-(trifluoro-methyl)phenoxy]phenyl}-4-methylbenzene-sulfonamide] | + |  |  |
| O=[N+]([O-])c1cc(C(F)(F)F)cc([N+](=O)[O-])c1Oc1ccc(NS(=O)(=O)c2ccc(Cl)cc2)cc1Cl [Example 248, 4-chloro-N-{3-chloro-4-[2,6-dinitro-4-(tri-fluoromethyl)phenoxy]phenyl}benzene-sulfonamide] | − |  |  |
| O=[N+]([O-])c1ccc(F)c(NS(=O)(=O)c2ccc(Oc3ccc([N+](=O)[O-])cc3C(F)(F)F)c(Cl)c2)c1 [Example 260, 3-chloro-N-(2-fluoro-5-nitrophenyl)-4-[4-nitro-2-(trifluoromethyl)phenoxy]benzene-sulfonamide] | + |  |  |
| CC(=O)N(C(C)=O)c1ccc(Oc2c(Cl)cc(S(=O)(=O)Nc3cccc(Cl)c3)cc2Cl)c(Cl)c1 [Example 280, N-acetyl-N-[3-chloro-4-(2,6-dichloro-4-{[(3-chlorophenyl)amino]sulfonyl}phenoxy)phenyl]acetamide] | + |  |  |
| O=[N+]([O-])c1ccc(Oc2c(Cl)cc(S(=O)(=O)Nc3cc(OC(F)(F)F)ccc3Br)cc2Cl)c(Cl)c1 [Example 293, N-(2-bromo-5-(trifluoromethoxy)phenyl)-3,5-dichloro-4-(2-chloro-4-nitrophenoxy)benzenesulfonamide] | + |  |  |
| O=C(Nc1cc(C(F)(F)F)ccc1Cl)N1CCC(Oc2ccccc2C(F)(F)F)CC1 [Example 307, N-(2-chloro-5-(trifluoromethyl)phenyl)-4-(2-(trifluoromethyl)phenoxy)piperidine-1-carboxamide] | − |  |  |
| O=C(Nc1cc(Cl)ccc1Cl)N1CCC(Oc2ccccc2C(F)(F)F)CC1 [Example 308, N-(2,5-dichlorophenyl)-4-(2-(trifluoromethyl)phenoxy)piperidine-1-carboxamide] | − |  |  |
| O=C(Nc1cc(C(F)(F)F)ccc1Cl)N1CCC(Oc2ncccn2)CC1 [Example 309, N-(2-chloro-5-(trifluoromethyl)phenyl)-4-(pyrimidin-2-yloxy)piperidine-1-carboxamide] | − |  |  |

Continued, in another order:

| APC Flag 8 pt [1] | APC Flag (2 pt) ([1]; 2 concentrations tested) | SMILES | PAD Assay, A549 6 pt (A549 cells) |
| --- | --- | --- | --- |
| + |  | O=[N+]([O-])c1ccc(Oc2c(Cl)cc(S(=O)(=O)Nc3ccc(F)cc3F)cc2Cl)c(Cl)c1 [Example 17, 3,5-dichloro-4-(2-chloro-4-nitrophenoxy)-N-(2,4-difluorophenyl)benzene-sulfonamide] | − |
| + |  | N=C(NS(=O)(=O)c1cc(Cl)c(Oc2ccc([N+](=O)[O-])cc2Cl)c(Cl)c1)c1ccc(Cl)cc1 [Example 25, 4-chloro-N-{[3,5-dichloro-4-(2-chloro-4-nitrophenoxy)phenyl]sulfonyl}benzene-carboximidamide] | − |
| − |  | N=C(NS(=O)(=O)c1cc(Cl)c(Oc2ccc([N+](=O)[O-])cc2Cl)c(Cl)c1)c1cccnc1 [Example 26, N-{[3,5-dichloro-4-(2-chloro-4-nitrophenoxy)phenyl]sulfonyl}pyridine-3-carboximidamide] | + |
| + |  | O=[N+]([O-])c1ccc(Oc2c(Cl)cc(S(=O)(=O)Nc3ccc(F)c(F)c3)cc2Cl)c(Cl)c1 [Example 197, 3,5-dichloro-4-(2-chloro-4-nitrophenoxy)-N-(3,4-difluorophenyl)benzenesulfonamide] |  |
| + |  | Cc1ccc(NS(=O)(=O)c2cc(Cl)c(Oc3ccc([N+](=O)[O-])cc3Cl)c(Cl)c2)cc1F [Example 198, 3,5-dichloro-4-(2-chloro-4-nitrophenoxy)-N-(3-fluoro-4-methylphenyl)benzene-sulfonamide] |  |
| + |  | N=C(Nc1ccc(Cl)cc1)NS(=O)(=O)c1cc(Cl)c(Oc2ccc([N+](=O)[O-])cc2Cl)c(Cl)c1 [Example 211, 3,5-dichloro-4-(2-chloro-4-nitrophenoxy)-N-[[(4-chlorophenyl)amino](imino)methyl] benzenesulfonamide] |  |
| − |  | N=C(NS(=O)(=O)c1cc(Cl)c(Oc2ccc([N+](=O)[O-])cc2Cl)c(Cl)c1)c1ccccc1 [Example 212, N-{[3,5-dichloro-4-(2-chloro-4-nitro-phenoxy)phenyl]sulfonyl}benzene-carboximidamide] |  |
| + |  | N=C(Nc1nc2ccccc2[nH]1)NS(=O)(=O)c1cc(Cl)c(Oc2ccc([N+](=O)[O-])cc2Cl)c(Cl)c1 [Example 225, N-[(1H-benzimidazol-2-ylamino)(imino)methyl]-3,5-dichloro-4-(2-chloro-4-nitro-phenoxy)benzenesulfonamide] |  |
|  | − (2 pt) | CC(C)c1ccccc1NS(=O)(=O)c1cc(Cl)c(Oc2ccc([N+](=O)[O-])cc2Cl)c(Cl)c1 [Example 227, 3,5-dichloro-4-(2-chloro-4-nitrophenoxy)-N-(2-isopropylphenyl)benzenesulfonamide] |  |
| + |  | O=[N+]([O-])c1ccc(Oc2c(Cl)cc(S(=O)(=O)Nc3cc(Cl)cnc3Cl)cc2Cl)c(Cl)c1 [Example 233, 3,5-dichloro-4-(2-chloro-4-nitrophenoxy)-N-(2,5-dichloropyridin-3-yl)benzene-sulfonamide] |  |
| + |  | O=[N+]([O-])c1ccc(Oc2c(Cl)cc(S(=O)(=O)Nc3cccc(F)c3F)cc2Cl)c(Cl)c1 [Example 239, 3,5-dichloro-4-(2-chloro-4-nitrophenoxy)-N-(2,3-difluorophenyl)benzenesulfonamide] |  |
